Literature values in patent US20250231185A1, “Coronavirus T Cell Epitopes, Megapools and Uses Thereof” (La Jolla Institute for Immunology, priority 2021, published 2025).
Entries after “also recorded” stand apart in the source; their conditions may differ.

Tested on: CD4+ T cells
Conditions: cited from earlier work; for Allele(s): HLA class II allele(s) identified as MHC restriction elements of the CD4 epitope; for Dominant: SARS-CoV-2-derived CD4 epitopes, Yes = recognized by 3 or more donors/different studies; for Restriction: T cell subset (CD4 or CD8) recognizing the SARS-CoV-2 epitope

Row | Substance | Allele(s) | Dominant | Restriction
1 | 58 (DDQIGYYRRATRRIR) [compound 58] | DRB1*01:03, DRB1*07:01,; also recorded: DRB1*13:01, DRB1*14:01,; also recorded: DRB1*14:06, DRB1*15:01,; also recorded: DRB1*16:02 | Yes (more dominant epitopes are defined by being recognized by 3 or more donors/different studies) | CD4
2 | 29 (SELVIGAVILRGHLR) [compound 29] | DQB1*06:02, DQB1*06:03,; also recorded: DRB1*01:02, DRB1*13:01,; also recorded: DRB1*14:01, DRB1*15:01,; also recorded: DRB1*16:01 | Yes (more dominant epitopes are defined by being recognized by 3 or more donors/different studies) | CD4
3 | 43 (SYYKLGASQRVAGDS) [compound 43] | DQB1*03:01, DRB1*01:01,; also recorded: DRB1*07:01 | Yes (more dominant epitopes are defined by being recognized by 3 or more donors/different studies) | CD4
4 | 17 (ITGGIAIAMACLVGL) [compound 17] | DQB1*03:01 | – | CD4
5 | 69 (KDGIIWVATEGALNT) [compound 69] | – | Yes (more dominant epitopes are defined by being recognized by 3 or more donors/different studies) | CD4
6 | 13 (LIFLWLLWPVTLACF) [compound 13] | DQB1*05:01, DQB1*05:03,; also recorded: DRB1*01:02 | – | CD4
7 | 79 (KPRQKRTATKAYNVT) [compound 79] | DPB1*14:01 | – | CD4
8 | 31 (GAVILRGHLRIAGHH) [compound 31] | DRB1*13:01, DRB1*15:01 | – | CD4
9 | 8 (FLFLTWICLLQFAYA) [compound 8] | DQB1*05:01, DQB1*05:03,; also recorded: DRB1*01:02 | – | CD4
10 | 53 (ASWFTALTQHGKEDL) [compound 53] | – | Yes (more dominant epitopes are defined by being recognized by 3 or more donors/different studies) | CD4
11 | 87 (YKHWPQIAQFAPSAS) [compound 87] | – | Yes (more dominant epitopes are defined by being recognized by 3 or more donors/different studies) | CD4
12 | 99 (PNFKDQVILLNKHIDAYK) [compound 99] | – | – | CD4
13 | 24 (SFNPETNILLNVPLH) [compound 24] | DRB1*01:02 | – | CD4
14 | 115 (IATNGPLKVGGSCVL) [compound 115] | DRB1*13:02 | – | CD4
15 | 11 (NRNRFLYIIKLIFLW) [compound 11] | DQB1*02:01, DQB1*05:03,; also recorded: DRB1*03:01, DRB1*12:01 | – | CD4
16 | 3 (LAILTALRLCAYCCN) [compound 3] | DRB1*01:01, DRB1*11:01 | – | CD4
17 | 25 (TNILLNVPLHGTILT) [compound 25] | DRB1*10:01, DRB1*12:02,; also recorded: DRB1*14:01, DRB1*14:06,; also recorded: DRB1*15:01, DRB1*16:02 | Yes (more dominant epitopes are defined by being recognized by 3 or more donors/different studies) | CD4
18 | 26 (NVPLHGTILTRPLLE) [compound 26] | – | – | CD4
19 | 12 (LYIIKLIFLWLLWPV) [compound 12] | DQB1*02:01, DRB1*12:01 | – | CD4
20 | 89 (QFAPSASAFFGMSRI) [compound 89] | DRB1*07:01 | – | CD4
21 | 21 (FIASFRLFARTRSMW) [compound 21] | DQB1*05:03, DRB1*03:01,; also recorded: DRB1*14:01 | – | CD4
22 | 88 (WPQIAQFAPSASAFF) [compound 88] | DQB1*02:02, DQB1*05:03,; also recorded: DRB1*04:04, DRB1*07:01,; also recorded: DRB1*15:01 | Yes (more dominant epitopes are defined by being recognized by 3 or more donors/different studies) | CD4
23 | 70 (IWVATEGALNTPKDH) [compound 70] | – | – | CD4

Row | Substance | Allele(s) | Dominant | Restriction
24 | 48 (IGNYKLNTDHSSSSD) [compound 48] | DRB1*03:01 | – | CD4
25 | 41 (SRTLSYYKLGASQRV) [compound 41] | DRB5*01:01, DRB5*01:02 | Yes (more dominant epitopes are defined by being recognized by 3 or more donors/different studies) | CD4
26 | 27 (GTILTRPLLESELVI) [compound 27] | DRB1*13:01 | – | CD4
27 | 59 (IGYYRRATRRIRGGD) [compound 59] | – | Yes (more dominant epitopes are defined by being recognized by 3 or more donors/different studies) | CD4
28 | 82 (TQAFGRRGPEQTQGN) [compound 82] | – | – | CD4
29 | 33 (RGHLRIAGHHLGRCD) [compound 33] | DRB1*07:01, DRB1*13:01,; also recorded: DRB1*14:01, DRB1*15:01 | Yes (more dominant epitopes are defined by being recognized by 3 or more donors/different studies) | CD4
30 | 55 (LTQHGKEDLKFPRGQ) [compound 55] | – | – | CD4
31 | 9 (WICLLQFAYANRNRF) [compound 9] | DQB1*05:03, DRB1*03:01,; also recorded: DRB1*14:01 | – | CD4
32 | 96 (TWLTYTGAIKLDDKDPNF) [compound 96] | – | – | CD4
33 | 18 (AIAMACLVGLMWLSY) [compound 18] | – | – | CD4
34 | 60 (YYRRATRRIRGGDGK) [compound 60] | DRB1*13:01, DRB1*14:06 | Yes (more dominant epitopes are defined by being recognized by 3 or more donors/different studies) | CD4
35 | 40 (TSRTLSYYKLGASQRVA) [compound 40] | – | Yes (more dominant epitopes are defined by being recognized by 3 or more donors/different studies) | CD4
36 | 61 (TRRIRGGDGKMKDLS) [compound 61] | – | – | CD4
37 | 67 (LPYGANKDGIIWVAT) [compound 67] | – | – | CD4
38 | 22 (RLFARTRSMWSFNPE) [compound 22] | DQB1*05:03, DRB1*14:01 | – | CD4
39 | 19 (CLVGLMWLSYFIASF) [compound 19] | DQB1*05:01, DQB1*05:03,; also recorded: DRB1*12:01, DRB1*12:02 | Yes (more dominant epitopes are defined by being recognized by 3 or more donors/different studies) | CD4
40 | 95 (GTWLTYTGAIKLDDK) [compound 95] | – | Yes (more dominant epitopes are defined by being recognized by 3 or more donors/different studies) | CD4
41 | 50 (PQNQRNAPRITFGGP) [compound 50] | – | – | CD4
42 | 35 (IAGHHLGRCDIKDLP) [compound 35] | – | Yes (more dominant epitopes are defined by being recognized by 3 or more donors/different studies) | CD4
43 | 15 (VLAAVYRINWITGGI) [compound 15] | DQB1*05:01, DQB1*05:03,; also recorded: DRB1*12:02, DRB1*14:01 | Yes (more dominant epitopes are defined by being recognized by 3 or more donors/different studies) | CD4
44 | 78 (KKPRQKRTATKAYNV) [compound 78] | – | Yes (more dominant epitopes are defined by being recognized by 3 or more donors/different studies) | CD4
45 | 54 (SWFTALTQHGKEDLK) [compound 54] | – | Yes (more dominant epitopes are defined by being recognized by 3 or more donors/different studies) | CD4
